One test relates to Bacillus subtilis. Kind of test: Antibacterial activity against Bacillus subtilis. In kind it is functional. Particulars: read-out: LD50 (the source's name).
For a further test, the system named is Staphylococcus aureus. Kind of test: Antibacterial activity against Staphylococcus aureus. The note with it: read-out: LD50 (the source's name). In kind it is functional.

The structures appear in SMILES notation.

In the case of `COC(=O)[C@@]12Oc3cc(C)c(-c4c(C)cc5c(c4O)C(=O)C4=C(O)C[C@@H](C)[C@@H](O)[C@@]4(CO[C@@H]4O[C@@H](C)[C@H](O)[C@@H](O)[C@H]4O)O5)c(O)c3C(=O)C1=C(O)[C@H](C)[C@@H](C)[C@@H]2O` [HIRTUSNEANOSIDE], the figures for the LC50 in the test on Bacillus subtilis and in the test with Staphylococcus aureus were 14 nM and 3.4 nM, respectively.

(Values after ChEMBL document CHEMBL1141280, “Hirtusneanoside, an unsymmetrical dimeric tetrahydroxanthone from the lichen Usnea hirta” (2007).)
